In PubChem BioAssay (NCI):
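1) Cells in 96-well plates. 2) Compound, 48 h, 5 concentrations. 3) Linear interpolation between surrounding doses. 4) Unreached endpoint = highest concentration. TGI: total growth inhibition.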

How the values were obtained:
Assay in all cases: DTP human tumour cell line panel, 48 h
SNB-75 CNS = test system: SNB-75 CNS
HL-60(TB) leukemia = test system: HL-60(TB) leukemia
MALME-3M melanoma = test system: MALME-3M melanoma
M19-MEL melanoma = test system: M19-MEL melanoma
ACHN renal = test system: ACHN renal
DMS 114 small cell lung = test system: DMS 114 small cell lung
RXF-631 renal = test system: RXF-631 renal
SK-MEL-2 melanoma = test system: SK-MEL-2 melanoma
COLO 205 colon = test system: COLO 205 colon
A549 NSCLC = test system: A549 NSCLC
HOP-62 NSCLC = test system: HOP-62 NSCLC
TK-10 renal = test system: TK-10 renal
M14 melanoma = test system: M14 melanoma
XF 498 CNS = test system: XF 498 CNS
KM12 colon = test system: KM12 colon
NCI-H23 lung = test system: NCI-H23 lung
SN12C renal = test system: SN12C renal
SR leukemia = test system: SR leukemia
CAKI-1 renal = test system: CAKI-1 renal
SK-OV-3 ovarian = test system: SK-OV-3 ovarian
SF-268 CNS = test system: SF-268 CNS
OVCAR-8 ovarian = test system: OVCAR-8 ovarian
HCC-2998 colon = test system: HCC-2998 colon
K-562 leukemia = test system: K-562 leukemia
U251 CNS = test system: U251 CNS
UO-31 renal = test system: UO-31 renal
EKVX NSCLC = test system: EKVX NSCLC
HOP-92 NSCLC = test system: HOP-92 NSCLC
UACC-257 melanoma = test system: UACC-257 melanoma
HCT-116 colon = test system: HCT-116 colon
HOP-18 NSCLC = test system: HOP-18 NSCLC
MOLT-4 leukemia = test system: MOLT-4 leukemia
HCT-15 colon = test system: HCT-15 colon
NCI-H522 lung = test system: NCI-H522 lung
NCI-H226 lung = test system: NCI-H226 lung
LOX IMVI melanoma = test system: LOX IMVI melanoma
OVCAR-3 ovarian = test system: OVCAR-3 ovarian
SK-MEL-5 melanoma = test system: SK-MEL-5 melanoma
LXFL 529 NSCLC = test system: LXFL 529 NSCLC
786-0 renal = test system: 786-0 renal
OVCAR-5 ovarian = test system: OVCAR-5 ovarian
SW-620 colon = test system: SW-620 colon
SF-539 CNS = test system: SF-539 CNS
SK-MEL-28 melanoma = test system: SK-MEL-28 melanoma
RPMI-8226 leukemia = test system: RPMI-8226 leukemia
HT29 colon = test system: HT29 colon
IGROV1 ovarian = test system: IGROV1 ovarian
SNB-78 CNS = test system: SNB-78 CNS
UACC-62 melanoma = test system: UACC-62 melanoma
CCRF-CEM leukemia = test system: CCRF-CEM leukemia
DLD-1 colon = test system: DLD-1 colon
A498 renal = test system: A498 renal
OVCAR-4 ovarian = test system: OVCAR-4 ovarian
KM20L2 colon = test system: KM20L2 colon
RXF 393 renal = test system: RXF 393 renal
SF-295 CNS = test system: SF-295 CNS
NCI-H460 lung = test system: NCI-H460 lung
SNB-19 CNS = test system: SNB-19 CNS

SMILES: CCOC(=O)C1=C(C)NC2=C(C(=O)N(c3ccccc3)C2c2ccccc2)C1c1ccccc1 (stereo unspecified)
- TGI (SNB-75 CNS): 26.6 µM
- TGI (HL-60(TB) leukemia): 81.2 µM
- TGI (MALME-3M melanoma): 33.7 µM
- TGI (M19-MEL melanoma): 32.3 µM
- TGI (ACHN renal): 27 µM
- TGI (DMS 114 small cell lung): 32.4 µM
- TGI (RXF-631 renal): 32.9 µM
- TGI (SK-MEL-2 melanoma): 33.5 µM
- TGI (COLO 205 colon): 33.5 µM
- TGI (A549 NSCLC): 44.2 µM
- TGI (HOP-62 NSCLC): 33.4 µM
- TGI (TK-10 renal): 45.2 µM
- TGI (M14 melanoma): 32.1 µM
- TGI (XF 498 CNS): 37.5 µM
- TGI (KM12 colon): 33.7 µM
- TGI (NCI-H23 lung): 33.7 µM
- TGI (SN12C renal): 35.8 µM
- TGI (SR leukemia): 45.5 µM
- TGI (CAKI-1 renal): 31.6 µM
- TGI (SK-OV-3 ovarian): 31.4 µM
- TGI (SF-268 CNS): 33.7 µM
- TGI (OVCAR-8 ovarian): 53.4 µM
- TGI (HCC-2998 colon): 31.7 µM
- TGI (K-562 leukemia): > 100 µM
- TGI (U251 CNS): 29.3 µM
- TGI (UO-31 renal): 39.1 µM
- TGI (EKVX NSCLC): 44.2 µM
- TGI (HOP-92 NSCLC): 25.8 µM
- TGI (UACC-257 melanoma): 40.2 µM
- TGI (HCT-116 colon): 31.4 µM
- TGI (HOP-18 NSCLC): 37.7 µM
- TGI (MOLT-4 leukemia): 56.2 µM
- TGI (HCT-15 colon): 32.2 µM
- TGI (NCI-H522 lung): 25.9 µM
- TGI (NCI-H226 lung): 37.1 µM
- TGI (LOX IMVI melanoma): 34.4 µM
- TGI (OVCAR-3 ovarian): 25.4 µM
- TGI (SK-MEL-5 melanoma): 28.6 µM
- TGI (LXFL 529 NSCLC): 30.3 µM
- TGI (786-0 renal): 35.8 µM
- TGI (OVCAR-5 ovarian): 29.8 µM
- TGI (SW-620 colon): 47.5 µM
- TGI (SF-539 CNS): 33.1 µM
- TGI (SK-MEL-28 melanoma): 34.8 µM
- TGI (RPMI-8226 leukemia): 53.4 µM
- TGI (HT29 colon): 37.2 µM
- TGI (IGROV1 ovarian): 40.8 µM
- TGI (SNB-78 CNS): 45.3 µM
- TGI (UACC-62 melanoma): 26.7 µM
- TGI (CCRF-CEM leukemia): 58 µM
- TGI (DLD-1 colon): 34.5 µM

SMILES: O=C(CCc1ccccc1)NS(=O)(=O)c1ccccc1
- TGI (SNB-75 CNS): > 100 µM
- TGI (HL-60(TB) leukemia): > 100 µM
- TGI (A498 renal): > 100 µM
- TGI (MALME-3M melanoma): > 100 µM
- TGI (M19-MEL melanoma): > 100 µM
- TGI (ACHN renal): > 100 µM
- TGI (DMS 114 small cell lung): > 100 µM
- TGI (RXF-631 renal): > 100 µM
- TGI (SK-MEL-2 melanoma): > 100 µM
- TGI (COLO 205 colon): > 100 µM
- TGI (A549 NSCLC): > 100 µM
- TGI (OVCAR-4 ovarian): > 100 µM
- TGI (HOP-62 NSCLC): > 100 µM
- TGI (KM20L2 colon): > 100 µM
- TGI (TK-10 renal): > 100 µM
- TGI (M14 melanoma): > 100 µM
- TGI (RXF 393 renal): > 100 µM
- TGI (XF 498 CNS): > 100 µM
- TGI (KM12 colon): > 100 µM
- TGI (NCI-H23 lung): > 100 µM
- TGI (SF-295 CNS): > 100 µM
- TGI (SN12C renal): > 100 µM
- TGI (SR leukemia): > 100 µM
- TGI (CAKI-1 renal): > 100 µM
- TGI (SK-OV-3 ovarian): > 100 µM
- TGI (SF-268 CNS): > 100 µM
- TGI (OVCAR-8 ovarian): > 100 µM
- TGI (HCC-2998 colon): > 100 µM
- TGI (K-562 leukemia): > 100 µM
- TGI (U251 CNS): > 100 µM
- TGI (UO-31 renal): > 100 µM
- TGI (EKVX NSCLC): > 100 µM
- TGI (HOP-92 NSCLC): > 100 µM
- TGI (UACC-257 melanoma): > 100 µM
- TGI (HCT-116 colon): > 100 µM
- TGI (HOP-18 NSCLC): > 100 µM
- TGI (MOLT-4 leukemia): > 100 µM
- TGI (NCI-H522 lung): > 100 µM
- TGI (NCI-H226 lung): > 100 µM
- TGI (LOX IMVI melanoma): > 100 µM
- TGI (NCI-H460 lung): > 100 µM
- TGI (OVCAR-3 ovarian): > 100 µM
- TGI (LXFL 529 NSCLC): > 100 µM
- TGI (786-0 renal): > 100 µM
- TGI (OVCAR-5 ovarian): > 100 µM
- TGI (SW-620 colon): > 100 µM
- TGI (SF-539 CNS): > 100 µM
- TGI (SK-MEL-28 melanoma): > 100 µM
- TGI (SNB-19 CNS): > 100 µM
- TGI (RPMI-8226 leukemia): > 100 µM
- TGI (HT29 colon): > 100 µM
- TGI (IGROV1 ovarian): > 100 µM
- TGI (UACC-62 melanoma): > 100 µM
- TGI (CCRF-CEM leukemia): > 100 µM
- TGI (DLD-1 colon): > 100 µM
